Data set [1] relates to cardiac β-receptor. In words: cardiac β-receptor blocking activity: inhibition of isoprenalin tachycardia in wake rabbits. The following applies: for LD50/DE250: ratio of mouse i.v. LD50 to rabbit i.v. DE250 (therapeutic breadth); for Heartbeat Frequency x ± sx / DE250: wake rabbits; for Heartbeat Frequency x ± sx: 30 min later isoprenalin i.v.; for DE250: interpolated dosage which limits the frequency increase to 250 beats/min. The protocol:
(§1) The following tests were carried out to determine (a) the toxicity and (b) the cardiac β-receptor blocking activity of certain test compounds by determining the inhibition of the heart beat frequency increase induced by intravenous administration of isoprenalin.
b. The β-receptor blocking activity of the test compounds was tested on wake rabbits weighing between 2 to 3.5 kg. and kept in wooden cages. EKG-electrodes were inserted into the hind quarters of the rabbits s.c. (II. lead) and the heart frequency was measured using an integrator (15 seconds) as a digital value. The test compounds were then infused through a small tube to the ear vein of the rabbits over a period of 15 minutes. 30 Minutes after the infusion isoprenalin (3,4-dihydroxy-α-[(isopropylamino)-methyl]-benzylalcohol) was injected intravenously at […].

Data set [2] is described as follows: in vivo. The following applies: iv, mouse, i.v. (tail vein), five male and five female mice per dosage, read-out: Acute Toxicity LD50 Mouse. As to the method:
as §1
a. […] The compounds, in dissolved form, were injected into the tail vein of five male and five female mice each in increasing dosages. The results (% of animals which died) were used, via programmed probability analysis, to determine the median lethal dosage (LD50).

As a reminder, the LD50 is the dose expected to kill half of the subjects tested.

As for `CC(=O)Nc1ccc(OCC(O)CNC(C)C)cc1` (stereo not drawn) [Compound A, 4-(2-Hydroxy-3-isopropylamino-propoxy)-acetanilide, reference compound], the LD50/DE250 in data set [1] is given as 28. Moreover, the “Heartbeat Frequency x ± sx” value in data set [1] (0.5 mg/kg i.v. infusion) was 307 ± 7 beats/min; in data set [1] (1.0 mg/kg i.v. infusion) it was 264 ± 9 beats/min; in data set [1] (2.0 mg/kg i.v. infusion) it was 250 ± 4 beats/min; in data set [1] (5.0 mg/kg i.v. infusion), 246 ± 7 beats/min; in data set [1] (10.0 mg/kg i.v. infusion) it was 217 ± 4 beats/min; in data set [1] (20.0 mg/kg i.v. infusion), 225 ± 6 beats/min. In data set [1], the DE250 is 2.5 mg/kg i.v.

For `CC(C)NCC(O)COc1cccc2ccccc12` (stereo not drawn) [Compound B, 1-Isopropylamino-3-(1-naphthoxy)-2-propanol, reference compound], the “Heartbeat Frequency x ± sx” value in data set [1] (0.01 mg/kg i.v. infusion) came to 342 ± 5 beats/min; in data set [1] (0.1 mg/kg i.v. infusion), 309 ± 9 beats/min; in data set [1] (0.25 mg/kg i.v. infusion), 259 ± 7 beats/min; in data set [1] (0.5 mg/kg i.v. infusion), 248 ± 6 beats/min; in data set [1] (1.0 mg/kg i.v. infusion), 210 ± 8 beats/min; in data set [1] (4.0 mg/kg i.v. infusion), 191 ± 6 beats/min. The compound also had a DE250 in data set [1] of 0.400 mg/kg i.v.

In the case of `CC(C)NCC(O)COc1cccc2nc[nH]c12` (stereo not drawn) [Compound I, 4-(3-Isopropylamino-2-hydroxy-propyloxy)-benzimidazole], the LD50 in data set [2] was 38 mg/kg. Further, the LD50/DE250 in data set [1] was determined as 422. Further, the “Heartbeat Frequency x ± sx” value is given as 300 ± 11 beats/min in data set [1] (0.01 mg/kg i.v. infusion); 292 ± 17 beats/min in data set [1] (0.05 mg/kg i.v. infusion); 239 ± 6 beats/min in data set [1] (0.1 mg/kg i.v. infusion); 228 ± 5 beats/min in data set [1] (0.5 mg/kg i.v. infusion); 218 ± 11 beats/min in data set [1] (1.0 mg/kg i.v. infusion); 219 ± 13 beats/min in data set [1] (5.0 mg/kg i.v. infusion). Besides, the DE250 in data set [1] is reported as 0.09 mg/kg i.v.

As for `CC(C)(C)NCC(O)COc1cccc2nc[nH]c12` (stereo not drawn) [Compound II, 4-(3-tert.-Butylamino-2-hydroxy-propyloxy)-benzimidazole], the LD50 in data set [2] is 28 mg/kg. Further, the LD50/DE250 in data set [1] is given as 560. For the same compound, the “Heartbeat Frequency x ± sx” value came out at 286 ± 12 beats/min in data set [1] (0.01 mg/kg i.v. infusion), 236 ± 6 beats/min in data set [1] (0.1 mg/kg i.v. infusion), 244 ± 9 beats/min in data set [1] (1.0 mg/kg i.v. infusion) and 273 ± 11 beats/min in data set [1] (5.0 mg/kg i.v. infusion). For the same compound, the DE250 in data set [1] was determined as 0.05 mg/kg i.v.

Regarding `Cc1nc2cccc(OCC(O)CNC(C)C)c2[nH]1` (stereo not drawn) [Compound III, 2-Methyl-4-(3-isopropylamino-2-hydroxy-propyloxy)-benzimidazole], in data set [2], the LD50 was 29 mg/kg. Also, the LD50/DE250 in data set [1] amounted to 170. For the same compound, the “Heartbeat Frequency x ± sx” value was 303 ± 17 beats/min in data set [1] (0.01 mg/kg i.v. infusion); 318 ± 11 beats/min in data set [1] (0.05 mg/kg i.v. infusion); 255 ± 9 beats/min in data set [1] (0.1 mg/kg i.v. infusion); 234 ± 11 beats/min in data set [1] (1.0 mg/kg i.v. infusion); 219 ± 14 beats/min in data set [1] (5.0 mg/kg i.v. infusion). This compound also had a DE250 in data set [1] of 0.17 mg/kg i.v.

Turning to `Cc1nc2cccc(OCC(O)CNC(C)(C)C)c2[nH]1` (stereo not drawn) [Compound IV, 2-Methyl-4-(3-tert.-butylamino-2-hydroxy-propyloxy)-benzimidazole], in data set [2], the LD50 was determined as 34 mg/kg. Moreover, the LD50/DE250 in data set [1] was determined as 425. Moreover, the “Heartbeat Frequency x ± sx” value in data set [1] (0.01 mg/kg i.v. infusion) stood at 289 ± 18 beats/min; in data set [1] (0.05 mg/kg i.v. infusion) it was 255 ± 7 beats/min; in data set [1] (0.1 mg/kg i.v. infusion), 248 ± 7 beats/min; in data set [1] (0.5 mg/kg i.v. infusion) it was 224 ± 8 beats/min; in data set [1] (1.0 mg/kg i.v. infusion), 211 ± 5 beats/min; in data set [1] (5.0 mg/kg i.v. infusion) it was 232 ± 5 beats/min. In data set [1], the DE250 is given as 0.08 mg/kg i.v.

(Values after patent US3982012A, “4-Hydroxy-benzimidazole compounds and therapeutic compositions” (Boehringer Mannheim G.m.b.H., priority 1974, dated 1976).)
